US20240058243A1, “A METHOD FOR FIGHTING MICROORGANISMS USING MENTHOL DERIVATIVES” (priority 2020, published 2024)
≈ marks a conversion by molar mass, not a printed value. Like-named read-outs stand apart in the source and are kept apart here. Blank lines part the entries; values can stand above or below the compound they belong to.

Experiments:
Candida albicans = test: Minimum inhibitory concentration, pure culture; format: cell-based
From the text: (§1) Antimicrobial activity was also investigated with pure cultures for three different cooling compounds. The results of Triclosan, a well-known antimicrobial, are shown for comparison.

Corynebacterium xerosis = test: Minimum inhibitory concentration, pure culture; format: cell-based
From the text: as §1

Staphylococcus aureus = test: Minimum inhibitory concentration, pure culture; format: cell-based
From the text: as §1

[1] = test system: Staphylococcus epidermidis; test: Minimum inhibitory concentration, pure culture; format: cell-based
From the text: as §1

Staphylococcus hominis = test: Minimum inhibitory concentration, pure culture; format: cell-based
From the text: as §1

Escherichia coli = test: Minimum inhibitory concentration, pure culture; format: cell-based; details: for MIC: Escherichia coli, read-out: MIC Escherichia coli; for MIC Escherichia coli: Example 2 table (oral care)
From the text: (§2) Antimicrobial activity was also investigated with pure cultures for three different cooling compounds. The results of Triclosan, a well-known antimicrobial, are shown for comparison. (Table 7):
(§3) The differential inhibition of microorganisms was also investigated with strains that typically are found in the oral cavity and that are related to oral diseases like gingivitis or caries. The cooling compounds show a better efficacy against Streptococcus mutans, Streptococcus salivarius, Porphyromonas gingivalis and Fusobacterium nucleatum in comparison to Escherichia coli.

Anaerococcus octavius = test: Minimum inhibitory concentration, pure culture; format: cell-based
From the text: as §2
It should be emphasized that Anaerococcus octavius represents the category of anaerobic odour causing bacteria. As a matter of fact, it is very hard to find antimicrobial materials which are active against these germs.

Fusobacterium nucleatum = test: Minimum inhibitory concentration, oral cavity strains; format: cell-based; details: read-out: MIC Fusobacterium nucleatum
From the text: as §3

Porphyromonas gingivalis = test: as above; format: cell-based; details: read-out: MIC Porphyromonas gingivalis
From the text: as §3

Streptococcus mutans = test: as above; format: cell-based; details: read-out: MIC Streptococcus mutans
From the text: as §3

Streptococcus salivarius = test: as above; format: cell-based; details: Example 2 table (oral care)
From the text: as §3

[2] = test system: axillary microbiome in human axillary sweat; test: Axillary microbiome ex vivo model: aerobic and anaerobic cell counts; format: cell-based
From the text: (§4) The formation of sweat odour was investigated in an axillary microbiome ex vivo model that is based on human axillary sweat. […] This includes accumulation of volatile organic acids related to sweat odour (measured with GC-MS) and conversion of non-odorous precursor molecules to the respective odorous product (measured with HPLC) going along with the development of the typical sweat odour (assessed by a sensory panel).
(§5) The resulting sweat odour is the result of microbial activity. Those microorganisms that can metabolize the nutrients contained in the sweat can also increase their cell number. Untreated sweat starts with a cell number of about 10^7 cells/ml. These numbers increase by a magnitude during incubation, both for aerobic as well as anaerobic cell count. […] Anaerobic genera like Anaerococcus, Peptoniphilus, and Finegoldia are part of the natural axillary flora (Zeeuwen et al (2012), Troccaz et al (2015)). As some of their assigned species are known to be odour causing (Fuji 2014), the limitation of their increase is of high importance for the management of the typical sweat odor. […] Table 2 refers to change in microbiome composition.

[3] = test system: axillary microbiome in human axillary sweat; test: Axillary microbiome ex vivo model: microbiome composition; format: cell-based
From the text: as §4, §5

[4] = test system: sweat odour of human axillary sweat; test: Axillary microbiome ex vivo model: sweat odour rating by sensory panel
From the text: as §4

[5] = test system: conversion of non-odorous precursor molecules in human axillary sweat; test: Axillary microbiome ex vivo model: HPLC-MS of non-odourous precursors and odorous products; format: cell-based
From the text: as §4

[6] = test system: volatile organic acids in human axillary sweat; test: Axillary microbiome ex vivo model: volatile organic acids (GC-MS); format: cell-based
From the text: as §4

[7] = Table 7, read-out: MIC Candida albicans
[8] = Table 7, read-out: MIC Corynebacterium xerosis
[9] = Table 7, read-out: MIC Staphylococcus aureus
[10] = Table 7, read-out: MIC Staphylococcus epidermidis
[11] = Table 7, read-out: MIC Staphylococcus hominis
[12] = Table 7, read-out: MIC Anaerococcus octavius
[13] = 5,000 ppm, after 48 h incubation of fresh sweat

MIC (Candida albicans; [7]): > 1 µg/mL | MIC (Corynebacterium xerosis; [8]): 500 µg/mL | MIC (Staphylococcus aureus; [9]): 1 µg/mL | MIC [1, 10]: 500 µg/mL | MIC (Staphylococcus hominis; [11]): 500 µg/mL | MIC (Escherichia coli; Table 7): > 1 µg/mL | MIC Escherichia coli (Escherichia coli): >1.000 ppm | MIC (Anaerococcus octavius; [12]): 2.5 µg/mL | MIC (Fusobacterium nucleatum; Example 2 table (oral care)): 500 µg/mL | MIC (Porphyromonas gingivalis; Example 2 table (oral care)): 250 µg/mL | MIC (Streptococcus mutans; Example 2 table (oral care)): 500 µg/mL | MIC (Streptococcus salivarius): 500 µg/mL
Compound: CC(C)[C@@H]1CC[C@@H](C)CC12OCC(CO)O2 (mixture of isomers) [Frescolat ® MGA, Menthon Glyceryl Acetal]

MIC (Candida albicans; [7]): 1 µg/mL | MIC (Corynebacterium xerosis; [8]): 250 µg/mL | MIC (Staphylococcus aureus; [9]): 250 µg/mL | MIC [1, 10]: 500 µg/mL | MIC (Staphylococcus hominis; [11]): 250 µg/mL | MIC (Escherichia coli; Table 7): > 5 µg/mL | MIC Escherichia coli (Escherichia coli): >5.000 ppm | MIC (Anaerococcus octavius; [12]): 500 µg/mL | MIC (Fusobacterium nucleatum; Example 2 table (oral care)): 250 µg/mL | MIC (Porphyromonas gingivalis; Example 2 table (oral care)): 125 µg/mL | MIC (Streptococcus mutans; Example 2 table (oral care)): 125 µg/mL | MIC (Streptococcus salivarius): 500 µg/mL
Compound: CC(O)C(=O)O[C@@H]1C[C@H](C)CC[C@H]1C(C)C (stereo in doubt) [Frescolat ® ML, Menthyl Lactate]
Cell number development compared to untreated ([2]; 5000 ppm added to fresh sweat): slight reduction compared to untreated | Aerobic cell count [2, 13]: 6.85E+07 cells/ml | Anaerobic cell count [2, 13]: 1.08E+07 cells/ml | Abundance of anaerobic odour causing genera Anaerococcus, Finegoldia and Moraxella ([3]; 5000 ppm added to fresh sweat): inhibited in their abundance increase | Relative abundance of Raoultella, Corynebacterium and Staphylococcus versus untreated ([3]; 5000 ppm added to fresh sweat): same relative abundance as in the untreated sample | Relative abundance Anaerococcus ([3]; 5,000 ppm, after 48 h): 1.6% | Relative abundance Below 0.1% ([3]; 5,000 ppm, after 48 h): 1.1% | Relative abundance Citrobacter ([3]; 5,000 ppm, after 48 h): 11.7% | Relative abundance Corynebacterium ([3]; 5,000 ppm, after 48 h): 2.8% | Relative abundance Enterobacter ([3]; 5,000 ppm, after 48 h): 32.6% | Relative abundance Finegoldia ([3]; 5,000 ppm, after 48 h): 0.2% | Relative abundance Kluyvera ([3]; 5,000 ppm, after 48 h): 0.9% | Relative abundance Moraxella ([3]; 5,000 ppm, after 48 h): 0.0% | Relative abundance Propionibacterium ([3]; 5,000 ppm, after 48 h): 7.6% | Relative abundance Raoultella ([3]; 5,000 ppm, after 48 h): 39.1% | Relative abundance Staphylococcus ([3]; 5,000 ppm, after 48 h): 2.2% | Relative abundance Streptococcus ([3]; 5,000 ppm, after 48 h): 0.1% | Relative abundance Undefined ([3]; 5,000 ppm, after 48 h): 0.0% | Odour development in sensory analysis in comparison to untreated ([4]; 5000 ppm added to fresh sweat): clear reduction of odour development | Odor rating (smell intensity), mean ([4]; 5000 ppm, 48 h, mean of 8 panelists): 2.4 | Formation of odorous products ([5]; 5000 ppm added to fresh sweat): drastically reduced formation | Concentration of non-odourous pre-cursour N-α-3-hydroxy-3-methylhexanoyl-L-glutamine (HMHA-Gln) ([5]; 5000 ppm, 48 h): 102.24 ppm | Concentration of non-odourous pre-cursour N-α-[(2E)-3-methyl-2-hexenoyl]-L-glutamine (3M2H-Gln) ([5]; 5000 ppm, 48 h): 10.42 ppm | Concentration of odorous products, line N-α-3-hydroxy-3-methylhexanoyl-L-glutamine (HMHA-Gln) ([5]; 5000 ppm, 48 h): 0.43 ppm | Concentration of odorous products, line N-α-[(2E)-3-methyl-2-hexenoyl]-L-glutamine (3M2H-Gln) ([5]; 5000 ppm, 48 h): 1.69 ppm | Formation of volatile organic acids ([6]; 5000 ppm added to fresh sweat): drastically reduced formation | Concentration of 2-Methylbutyric Acid ([6]; 5000 ppm, 48 h): 0 ppm | Concentration of Acetic Acid ([6]; 5000 ppm, 48 h): 11.1 ppm | Concentration of Butyric Acid ([6]; 5000 ppm, 48 h): 0.3 ppm | Concentration of Capric Acid ([6]; 5000 ppm, 48 h): 1.3 ppm | Concentration of Capronic Acid ([6]; 5000 ppm, 48 h): 0.6 ppm | Concentration of Caprylic Acid ([6]; 5000 ppm, 48 h): 1.5 ppm | Concentration of Lauric Acid ([6]; 5000 ppm, 48 h): 1.7 ppm | Concentration of Propanoic Acid ([6]; 5000 ppm, 48 h): 2.2 ppm | Concentration of Valeric Acid ([6]; 5000 ppm, 48 h): 0 ppm

MIC (Candida albicans; [7]): > 1 µg/mL | MIC (Corynebacterium xerosis; [8]): 500 µg/mL (≈ 2050 µM) | MIC (Staphylococcus aureus; [9]): 500 µg/mL (≈ 2050 µM) | MIC (Staphylococcus hominis; [11]): 500 µg/mL (≈ 2050 µM) | MIC (Escherichia coli; Table 7): > 1 µg/mL | MIC Escherichia coli (Escherichia coli): >1.000 ppm | MIC (Anaerococcus octavius; [12]): 1 µg/mL (≈ 4.09 µM) | MIC (Fusobacterium nucleatum; Example 2 table (oral care)): 16 µg/mL (≈ 65.5 µM) | MIC (Porphyromonas gingivalis; Example 2 table (oral care)): 125 µg/mL (≈ 512 µM) | MIC (Streptococcus mutans; Example 2 table (oral care)): 250 µg/mL (≈ 1020 µM) | MIC (Streptococcus salivarius): 500 µg/mL (≈ 2050 µM)
Compound: CC(C)[C@@H]1CC[C@@H](C)C[C@H]1OC(=O)OCCO [Frescolat ® MGC, Menthol Ethylene Glycol Carbonate]

Compound: Oc1cc(Cl)ccc1Oc1ccc(Cl)cc1Cl [Triclosan, reference compound]
MIC (Candida albicans; read-out: MIC Candida albicans): 16 µg/mL (≈ 55.3 µM) | MIC (Corynebacterium xerosis; read-out: MIC Corynebacterium xerosis): 8 µg/mL (≈ 27.6 µM) | MIC (Staphylococcus aureus; read-out: MIC Staphylococcus aureus): 2 µg/mL (≈ 6.91 µM) | MIC ([1]; read-out: MIC Staphylococcus epidermidis): 4 µg/mL (≈ 13.8 µM) | MIC (Staphylococcus hominis; read-out: MIC Staphylococcus hominis): 4 µg/mL (≈ 13.8 µM) | MIC (Escherichia coli): > 1 µg/mL | MIC Escherichia coli (Escherichia coli): >1 ppm | MIC (Anaerococcus octavius; read-out: MIC Anaerococcus octavius): > 500 µg/mL | MIC (Fusobacterium nucleatum): 8 µg/mL (≈ 27.6 µM) | MIC (Porphyromonas gingivalis): 1 µg/mL (≈ 3.45 µM) | MIC (Streptococcus mutans): 8 µg/mL (≈ 27.6 µM)
